Source: the supplement of paper PMC11061612

Assays:
Experiment in all cases: combination Emax (second highest fraction inhibited in the dose matrix, 72 h); higher = more inhibition; extreme values may be limits of the assay
NB12 (Neuroblastoma) = tested on: NB12 (Neuroblastoma)
Outline: (§1)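 After 24 hours at 37°C and 5% CO2 in 1536-well plates, cells in DMEM/F12 or RPMI plus 10% FBS received two-drug dose matrices for 72 hours. Viability came from CellTiter-Glo 2.0 luminescence and was scaled as inhibition, anchored at 0 by vehicle wells and at 1 by blank wells. Combination Emax is taken as the second-highest inhibition in the matrix, and Bliss excess as the observed combination effect less EA + EB − EA·EB, with EA and EB the single-agent effects.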

[1] = tested on: NCI-H2342 (Lung Adenocarcinoma)
Outline: as §1

[2] = tested on: OVMIU (Ovarian Carcinoma)
Outline: as §1

[3] = tested on: RKN (Other Solid Carcinomas)
Outline: as §1

[4] = tested on: LK-2 (Squamous Cell Lung Carcinoma)
Outline: as §1

[5] = tested on: COLO-680N (Esophageal Squamous Cell Carcinoma)
Outline: as §1

[6] = tested on: MFE-280 (Endometrial Carcinoma)
Outline: as §1

[7] = tested on: REH (B-Lymphoblastic Leukemia)
Outline: as §1

SMILES | combination Emax (NB12 (Neuroblastoma)) | combination Emax [1] | combination Emax [2] | combination Emax [3] | combination Emax [4] | combination Emax [5] | combination Emax [6] | combination Emax [7]
Cc1c2c(nn1C)CSCc1cc(n(C)n1)CSc1cc(c3ccccc3c1)OCCCc1c(C(=O)O)n(C)c3c-2c(Cl)ccc13 [AZD5991] + CS(=O)(=O)CCNCc1ccc(-c2ccc3ncnc(Nc4ccc(OCc5cccc(F)c5)c(Cl)c4)c3c2)o1 [Lapatinib] (first compound max 1 µM, 7x7, partner max 10 µM) | 0.464 | 0.34 | 0.687 | 0.205 | 0.186 | 0.291 | 0.347 | 0.862
Cc1c2c(nn1C)CSCc1cc(n(C)n1)CSc1cc(c3ccccc3c1)OCCCc1c(C(=O)O)n(C)c3c-2c(Cl)ccc13 [AZD5991] + CC(=O)O[C@H]1C(=O)[C@@]2(C)[C@H]([C@H](OC(=O)c3ccccc3)[C@]3(O)C[C@H](OC(=O)[C@H](O)[C@@H](NC(=O)c4ccccc4)c4ccccc4)C(C)=C1C3(C)C)[C@]1(OC(C)=O)CO[C@@H]1C[C@@H]2O [Paclitaxel] (first compound max 1 µM, 7x7, partner max 3 µM) | 0.91 | 0.988 | 0.735 | 0.839 | 0.986 | 0.476 | 0.574 | 1
CC1(C)CCC(CN2CCN(c3ccc(C(=O)NS(=O)(=O)c4ccc(NCC5CCOCC5)c([N+](=O)[O-])c4)c(Oc4cnc5[nH]ccc5c4)c3)CC2)=C(c2ccc(Cl)cc2)C1 [Venetoclax] + CS(=O)(=O)CCNCc1ccc(-c2ccc3ncnc(Nc4ccc(OCc5cccc(F)c5)c(Cl)c4)c3c2)o1 [Lapatinib] (first compound max 1 µM, 7x7, partner max 10 µM) | 0.915 | 0.183 | 0.607 | 0.171 | 0.31 | 0.231 | 0.255 | 0.916
Cc1c2c(nn1C)CSCc1cc(n(C)n1)CSc1cc(c3ccccc3c1)OCCCc1c(C(=O)O)n(C)c3c-2c(Cl)ccc13 [AZD5991] + Nc1ccn([C@@H]2O[C@H](CO)[C@@H](O)C2(F)F)c(=O)n1 [Gemcitabine] (first compound max 1 µM, 7x7, partner max 0.3 µM) | 0.77 | 0.636 | 0.551 | 0.107 | 0.674 | 0.365 | 0.468 | 0.984
C[C@@H](Oc1cc(-c2cnn(C3CCNCC3)c2)cnc1N)c1c(Cl)ccc(F)c1Cl [Crizotinib] + Cn1cnc2c(F)c(Nc3ccc(Br)cc3Cl)c(C(=O)NOCCO)cc21 [Selumetinib] (first compound max 10 µM, 7x7, partner max 10 µM) | 0.79 | 0.285 | 0.498 | 0.48 | 0.749 | 0.319 | 0.28 | 0.721
